Reference: patent US20260022142A1, “MACROCYCLIC IMMUNOMODULATORS” (Bristol-Myers Squibb Company, priority 2022, published 2026)
Bridge positions count the residues as written; N and C are the ends. Square brackets hold non-standard residues; d marks the D form. Peptide text beside a SMILES is read from it. * marks the point of attachment. Phe(4-COOH) = N[C@@H](Cc1ccc(C(=O)O)cc1)C(=O)O; Phe(3,4-F2) = N[C@@H](Cc1ccc(F)c(F)c1)C(=O)O; Bip = N[C@@H](Cc1ccc(-c2ccccc2)cc1)C(=O)O; Phe(3-Me) = Cc1cccc(C[C@H](N)C(=O)O)c1; Phe(4-F) = N[C@@H](Cc1ccc(F)cc1)C(=O)O; 1Nal = N[C@@H](Cc1cccc2ccccc12)C(=O)O; Bta = N[C@@H](Cc1csc2ccccc12)C(=O)O; Cha = N[C@@H](CC1CCCCC1)C(=O)O; Cit = NC(=O)NCCC[C@H](N)C(=O)O; Carboxymethyl = O=C(O)C*; Orn = NCCC[C@H](N)C(=O)O; Aun = NCCCCCCCCCCC(=O)O; Dab = NCC[C@H](N)C(=O)O; Dap = NC[C@H](N)C(=O)O; AEEA = NCCOCCOCC(=O)O

Target: T1, PD-1/PD-L1 interaction (PE-labeled human PD-L1-Ig binding to Jurkat cell line over-expressing human PD-1) (Homo sapiens, UniProt Q15116)
T1 construct: expressed in transfected cells; host or cells: Jurkat
T1 sequence (Q15116 25-288): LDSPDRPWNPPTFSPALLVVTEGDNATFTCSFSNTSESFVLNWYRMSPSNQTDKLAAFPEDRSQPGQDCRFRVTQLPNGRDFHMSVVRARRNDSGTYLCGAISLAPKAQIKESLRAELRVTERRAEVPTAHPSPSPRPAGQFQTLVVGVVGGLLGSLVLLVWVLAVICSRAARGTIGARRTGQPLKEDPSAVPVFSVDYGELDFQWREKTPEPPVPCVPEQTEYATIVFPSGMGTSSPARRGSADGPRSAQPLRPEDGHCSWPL
Assay: Jurkat-PD-1 Cell Binding High-Content Screening Assay (CBA)
Type: cell-based
Conditions: Jurkat cell line over-expressing human PD-1; PE-labeled PD-L1-Ig 20 nM final; read-out: Jurkat hPD1-PDL1 IC50
Summary of the method: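 Binding of fluorescent PD-L1-Ig (20 nM final) to Jurkat-PD-1 cells was measured by automated imaging after 1 h, following a 2 h compound pre-treatment at 37° C.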

Row | Structure (SMILES) | IC50
1 | Cc1cccc(C[C@@H]2NC(=O)[C@H](CC(=O)O)NC(=O)[C@H](Cc3ccc(OCC(=O)O)cc3)NC(=O)[C@H](CN)NC(=O)CSC[C@@H](C(=O)NCC(=O)N[C@@H](CCC(=O)O)C(=O)NCCCCCCCCCCC(=O)O)NC(=O)[C@H]([C@@H](C)O)NC(=O)[C@H](C(C)C)NC(=O)[C@H](CC3CCCCC3)NC(=O)[C@H](CCN)NC(=O)[C@@H](CC(C)C)NC(=O)[C@H](CCCN)NC(=O)[C@H](CCCNC(N)=O)NC(=O)[C@H](Cc3ccc(-c4ccccc4)cc3)NC(=O)[C@H](C(C)C)NC2=O)c1 [Compound 1292] ({CH2CO}-[Dap]Y(Carboxymethyl)D[Phe(3-Me)]V[Bip][Cit][Orn][dL][Dab][Cha]VTCGE[Aun]-OH; thioether N-14) | 0.018 µM
2 | Cc1cccc(C[C@@H]2NC(=O)[C@H](CC(=O)O)NC(=O)[C@H](Cc3ccc(OCC(=O)O)cc3)NC(=O)[C@H]([C@@H](C)O)NC(=O)CSC[C@@H](C(=O)N[C@@H](CCCCN)C(=O)NCCCCCCCCCCC(=O)O)NC(=O)[C@H]([C@@H](C)O)NC(=O)[C@H](C(C)C)NC(=O)[C@H](CC3CCCCC3)NC(=O)[C@H](CCN)NC(=O)[C@@H](CC(C)C)NC(=O)[C@H](CCCN)NC(=O)[C@H](Cc3ccc(OCC(=O)O)cc3)NC(=O)[C@H](Cc3ccc(-c4ccccc4)cc3)NC(=O)[C@H](Cc3ccc(OCC(=O)O)cc3)NC2=O)c1 [Compound 1293] ({CH2CO}-TY(Carboxymethyl)D[Phe(3-Me)]Y(Carboxymethyl)[Bip]Y(Carboxymethyl)[Orn][dL][Dab][Cha]VTCK[Aun]-OH; thioether N-14) | 0.0191 µM
3 | CC(C)C[C@H]1NC(=O)[C@H](CCCN)NC(=O)[C@H](Cc2ccc(O)cc2)NC(=O)[C@H](Cc2ccc(-c3ccccc3)cc2)NC(=O)[C@H](C(C)C)NC(=O)[C@H](Cc2ccc(F)cc2)NC(=O)[C@H](CC(=O)O)NC(=O)[C@H](Cc2ccc(OCC(=O)O)cc2)NC(=O)[C@H](CN)NC(=O)CSC[C@@H](C(=O)N[C@@H](CCN)C(=O)NCCOCCOCC(=O)NCCCCCCCCCCC(=O)O)NC(=O)[C@H](CCCN)NC(=O)[C@H](C(C)C)NC(=O)[C@H](CC2CCCCC2)NC(=O)[C@H](CCN)NC1=O [Compound 1294] ({CH2CO}-[Dap]Y(Carboxymethyl)D[Phe(4-F)]V[Bip]Y[Orn][dL][Dab][Cha]V[Orn]C[Dab][AEEA][Aun]-OH; thioether N-14) | 0.0196 µM
4 | Cc1cccc(C[C@@H]2NC(=O)[C@H](CC(=O)O)NC(=O)[C@H](Cc3ccc(OCC(=O)O)cc3)NC(=O)[C@H](CN)NC(=O)CSC[C@@H](C(=O)NCC(=O)NCCCCCCCCCCC(=O)O)NC(=O)[C@H]([C@@H](C)O)NC(=O)[C@H](C(C)C)NC(=O)[C@H](CC3CCCCC3)NC(=O)[C@H](CCN)NC(=O)[C@@H](CC(C)C)NC(=O)[C@H](CCCN)NC(=O)[C@H](CCCNC(N)=O)NC(=O)[C@H](Cc3ccc(-c4ccccc4)cc3)NC(=O)[C@H](C(C)C)NC2=O)c1 [Compound 1295] ({CH2CO}-[Dap]Y(Carboxymethyl)D[Phe(3-Me)]V[Bip][Cit][Orn][dL][Dab][Cha]VTCG[Aun]-OH; thioether N-14) | 0.0222 µM
5 | Cc1cccc(C[C@@H]2NC(=O)[C@H](CC(=O)O)NC(=O)[C@H](Cc3ccc(OCC(=O)O)cc3)NC(=O)[C@H](CCCNC(=N)N)NC(=O)CSC[C@@H](C(=O)N[C@@H](CCCCN)C(=O)NCCCCCCCCCCC(=O)O)NC(=O)[C@H]([C@@H](C)O)NC(=O)[C@H](C(C)C)NC(=O)[C@H](CC3CCCCC3)NC(=O)[C@H](CCN)NC(=O)[C@@H](CC(C)C)NC(=O)[C@H](CCCN)NC(=O)[C@H](Cc3ccc(OCC(=O)O)cc3)NC(=O)[C@H](Cc3ccc(-c4ccccc4)cc3)NC(=O)[C@H](Cc3ccc(OCC(=O)O)cc3)NC2=O)c1 [Compound 1296] ({CH2CO}-RY(Carboxymethyl)D[Phe(3-Me)]Y(Carboxymethyl)[Bip]Y(Carboxymethyl)[Orn][dL][Dab][Cha]VTCK[Aun]-OH; thioether N-14) | 0.024 µM
6 | CC(C)C[C@H]1NC(=O)[C@H](CCCN)NC(=O)[C@H](Cc2ccc(O)cc2)NC(=O)[C@H](Cc2ccc(-c3ccccc3)cc2)NC(=O)[C@H](C(C)C)NC(=O)[C@H](Cc2cccc3ccccc23)NC(=O)[C@H](CC(=O)O)NC(=O)[C@H](Cc2ccc(OCC(=O)O)cc2)NC(=O)[C@H](CN)NC(=O)CSC[C@@H](C(=O)N[C@@H](CCN)C(=O)NCCOCCOCC(=O)NCCCCCCCCCCC(=O)O)NC(=O)[C@H](CCCN)NC(=O)[C@H](C(C)C)NC(=O)[C@H](CC2CCCCC2)NC(=O)[C@H](CCN)NC1=O [Compound 1297] ({CH2CO}-[Dap]Y(Carboxymethyl)D[1Nal]V[Bip]Y[Orn][dL][Dab][Cha]V[Orn]C[Dab][AEEA][Aun]-OH; thioether N-14) | 0.0246 µM
7 | CC(C)C[C@H]1NC(=O)[C@H](CCCN)NC(=O)[C@H](Cc2ccc(O)cc2)NC(=O)[C@H](Cc2ccc(-c3ccccc3)cc2)NC(=O)[C@H](Cc2ccc(OCC(=O)O)cc2)NC(=O)[C@H](Cc2ccc(F)cc2)NC(=O)[C@H](CC(=O)O)NC(=O)[C@H](Cc2ccc(OCC(=O)O)cc2)NC(=O)[C@H](CN)NC(=O)CSC[C@@H](C(=O)N[C@@H](CCN)C(=O)NCCOCCOCC(=O)NCCCCCCCCCCC(=O)O)NC(=O)[C@H](CCCN)NC(=O)[C@H](C(C)C)NC(=O)[C@H](CC2CCCCC2)NC(=O)[C@H](CCN)NC1=O [Compound 1298] ({CH2CO}-[Dap]Y(Carboxymethyl)D[Phe(4-F)]Y(Carboxymethyl)[Bip]Y[Orn][dL][Dab][Cha]V[Orn]C[Dab][AEEA][Aun]-OH; thioether N-14) | 0.0288 µM
8 | CC(C)C[C@H]1NC(=O)[C@H](CCCN)NC(=O)[C@H](Cc2ccc(O)cc2)NC(=O)[C@H](Cc2ccc(-c3ccccc3)cc2)NC(=O)[C@H](C(C)C)NC(=O)[C@H](Cc2ccc(F)c(F)c2)NC(=O)[C@H](CC(=O)O)NC(=O)[C@H](Cc2ccc(OCC(=O)O)cc2)NC(=O)[C@H](CN)NC(=O)CSC[C@@H](C(=O)N[C@@H](CCN)C(=O)NCCOCCOCC(=O)NCCCCCCCCCCC(=O)O)NC(=O)[C@H](CCCN)NC(=O)[C@H](C(C)C)NC(=O)[C@H](CC2CCCCC2)NC(=O)[C@H](CCN)NC1=O [Compound 1301] ({CH2CO}-[Dap]Y(Carboxymethyl)D[Phe(3,4-F2)]V[Bip]Y[Orn][dL][Dab][Cha]V[Orn]C[Dab][AEEA][Aun]-OH; thioether N-14) | 0.0319 µM
9 | CC(C)C[C@H]1NC(=O)[C@H](CCCN)NC(=O)[C@H](Cc2ccc(O)cc2)NC(=O)[C@H](Cc2ccc(-c3ccccc3)cc2)NC(=O)[C@H](C(C)C)NC(=O)[C@H](Cc2ccc(O)cc2)NC(=O)[C@H](CC(=O)O)NC(=O)[C@H](Cc2ccc(OCC(=O)O)cc2)NC(=O)[C@H](CN)NC(=O)CSC[C@@H](C(=O)N[C@@H](CCN)C(=O)NCCOCCOCC(=O)NCCCCCCCCCCC(=O)O)NC(=O)[C@H](CCCN)NC(=O)[C@H](C(C)C)NC(=O)[C@H](CC2CCCCC2)NC(=O)[C@H](CCN)NC1=O [Compound 1302] ({CH2CO}-[Dap]Y(Carboxymethyl)DYV[Bip]Y[Orn][dL][Dab][Cha]V[Orn]C[Dab][AEEA][Aun]-OH; thioether N-14) | 0.0319 µM
10 | Cc1cccc(C[C@@H]2NC(=O)[C@H](CC(=O)O)NC(=O)[C@H](Cc3ccc(OCC(=O)O)cc3)NC(=O)[C@H]([C@@H](C)O)NC(=O)CSC[C@@H](C(=O)N[C@@H](CCCCN)C(=O)NCCCCCCCCCCC(=O)O)NC(=O)[C@H]([C@@H](C)O)NC(=O)[C@H](C(C)C)NC(=O)[C@H](CC3CCCCC3)NC(=O)[C@H](CCN)NC(=O)[C@@H](CC(C)C)NC(=O)[C@H](CCCN)NC(=O)[C@H](Cc3ccc(OCC(=O)O)cc3)NC(=O)[C@H](Cc3ccc(-c4ccccc4)cc3)NC(=O)[C@H](Cc3ccc(C(=O)O)cc3)NC2=O)c1 [Compound 1303] ({CH2CO}-TY(Carboxymethyl)D[Phe(3-Me)][Phe(4-COOH)][Bip]Y(Carboxymethyl)[Orn][dL][Dab][Cha]VTCK[Aun]-OH; thioether N-14) | 0.0322 µM
11 | CC(C)C[C@H]1NC(=O)[C@H](CCCN)NC(=O)[C@H](Cc2ccc(O)cc2)NC(=O)[C@H](Cc2ccc(-c3ccccc3)cc2)NC(=O)[C@H](C(C)C)NC(=O)[C@H](Cc2csc3ccccc23)NC(=O)[C@H](CC(=O)O)NC(=O)[C@H](Cc2ccc(OCC(=O)O)cc2)NC(=O)[C@H](CN)NC(=O)CSC[C@@H](C(=O)N[C@@H](CCN)C(=O)NCCOCCOCC(=O)NCCCCCCCCCCC(=O)O)NC(=O)[C@H](CCCN)NC(=O)[C@H](C(C)C)NC(=O)[C@H](CC2CCCCC2)NC(=O)[C@H](CCN)NC1=O [Compound 1304] ({CH2CO}-[Dap]Y(Carboxymethyl)D[Bta]V[Bip]Y[Orn][dL][Dab][Cha]V[Orn]C[Dab][AEEA][Aun]-OH; thioether N-14) | 0.0373 µM
12 | CC(C)C[C@H]1NC(=O)[C@H](CCCN)NC(=O)[C@H](Cc2ccc(O)cc2)NC(=O)[C@H](Cc2ccc(-c3ccccc3)cc2)NC(=O)[C@H](Cc2ccc(OCC(=O)O)cc2)NC(=O)[C@H](Cc2cccc3ccccc23)NC(=O)[C@H](CC(=O)O)NC(=O)[C@H](Cc2ccc(OCC(=O)O)cc2)NC(=O)[C@H](CN)NC(=O)CSC[C@@H](C(=O)N[C@@H](CCN)C(=O)NCCOCCOCC(=O)NCCCCCCCCCCC(=O)O)NC(=O)[C@H](CCCN)NC(=O)[C@H](C(C)C)NC(=O)[C@H](CC2CCCCC2)NC(=O)[C@H](CCN)NC1=O [Compound 1305] ({CH2CO}-[Dap]Y(Carboxymethyl)D[1Nal]Y(Carboxymethyl)[Bip]Y[Orn][dL][Dab][Cha]V[Orn]C[Dab][AEEA][Aun]-OH; thioether N-14) | 0.0434 µM
13 | CC(C)C[C@H]1NC(=O)[C@H](CCCN)NC(=O)[C@H](Cc2ccc(O)cc2)NC(=O)[C@H](Cc2ccc(-c3ccccc3)cc2)NC(=O)[C@H](Cc2ccc(OCC(=O)O)cc2)NC(=O)[C@H](Cc2c[nH]c3ccccc23)NC(=O)[C@H](CC(=O)O)NC(=O)[C@H](Cc2ccc(OCC(=O)O)cc2)NC(=O)[C@H](CN)NC(=O)CSC[C@@H](C(=O)N[C@@H](CCN)C(=O)NCCOCCOCC(=O)NCCCCCCCCCCC(=O)O)NC(=O)[C@H](CCCN)NC(=O)[C@H](C(C)C)NC(=O)[C@H](CC2CCCCC2)NC(=O)[C@H](CCN)NC1=O [Compound 1306] ({CH2CO}-[Dap]Y(Carboxymethyl)DWY(Carboxymethyl)[Bip]Y[Orn][dL][Dab][Cha]V[Orn]C[Dab][AEEA][Aun]-OH; thioether N-14) | 0.0489 µM
